# Assay results published in article doi:10.1101/2025.06.04.657800v3, “Advancing Ligand Binding Affinity Prediction with Cartesian Tensor-Based Deep Learning” (biorxiv, 2025).
# pIC50, pKd: −log10 of the molar value.
# What was measured:
# ENPP1 [1] = target: T1, ENPP1 (Homo sapiens, UniProt P22413); test: in vitro enzyme activity assay; assay type: biochemical
# T1 construct: purified ENPP1 protein for PTS, enzyme assay and SPR
# T1 sequence (P22413 1-925): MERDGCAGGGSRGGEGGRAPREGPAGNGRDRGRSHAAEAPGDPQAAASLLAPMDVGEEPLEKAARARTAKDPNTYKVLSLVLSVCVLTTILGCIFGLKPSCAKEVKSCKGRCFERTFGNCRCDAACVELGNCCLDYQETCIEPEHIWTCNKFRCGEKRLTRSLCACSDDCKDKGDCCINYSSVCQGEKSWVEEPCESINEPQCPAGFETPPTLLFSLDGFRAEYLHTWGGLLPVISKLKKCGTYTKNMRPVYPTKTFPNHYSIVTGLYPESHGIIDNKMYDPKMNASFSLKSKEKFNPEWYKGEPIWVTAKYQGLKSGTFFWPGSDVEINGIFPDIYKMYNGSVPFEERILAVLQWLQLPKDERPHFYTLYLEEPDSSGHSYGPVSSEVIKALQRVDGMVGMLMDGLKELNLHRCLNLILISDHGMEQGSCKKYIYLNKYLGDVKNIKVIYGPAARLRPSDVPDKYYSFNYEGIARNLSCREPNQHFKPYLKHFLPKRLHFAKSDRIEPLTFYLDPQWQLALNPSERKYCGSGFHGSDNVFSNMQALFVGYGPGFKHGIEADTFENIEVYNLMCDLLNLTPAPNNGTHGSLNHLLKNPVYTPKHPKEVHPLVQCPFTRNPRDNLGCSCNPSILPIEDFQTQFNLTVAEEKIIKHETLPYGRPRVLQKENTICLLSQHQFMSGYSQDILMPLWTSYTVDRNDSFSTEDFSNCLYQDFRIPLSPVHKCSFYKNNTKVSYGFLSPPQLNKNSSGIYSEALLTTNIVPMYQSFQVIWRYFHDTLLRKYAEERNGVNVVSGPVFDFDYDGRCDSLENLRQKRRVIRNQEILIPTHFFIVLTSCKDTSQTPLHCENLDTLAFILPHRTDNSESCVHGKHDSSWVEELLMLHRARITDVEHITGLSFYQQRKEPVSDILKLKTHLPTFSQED
# ENPP1 [2] = target: T1, ENPP1; test: surface plasmon resonance; assay type: binding
# ALDH1B1 [3] = target: T2, ALDH1B1 (Homo sapiens, UniProt P30837); test: surface plasmon resonance; assay type: binding
# T2 construct: purified ALDH1B1 protein, wild type and alanine mutants
# T2 sequence (P30837 18-517): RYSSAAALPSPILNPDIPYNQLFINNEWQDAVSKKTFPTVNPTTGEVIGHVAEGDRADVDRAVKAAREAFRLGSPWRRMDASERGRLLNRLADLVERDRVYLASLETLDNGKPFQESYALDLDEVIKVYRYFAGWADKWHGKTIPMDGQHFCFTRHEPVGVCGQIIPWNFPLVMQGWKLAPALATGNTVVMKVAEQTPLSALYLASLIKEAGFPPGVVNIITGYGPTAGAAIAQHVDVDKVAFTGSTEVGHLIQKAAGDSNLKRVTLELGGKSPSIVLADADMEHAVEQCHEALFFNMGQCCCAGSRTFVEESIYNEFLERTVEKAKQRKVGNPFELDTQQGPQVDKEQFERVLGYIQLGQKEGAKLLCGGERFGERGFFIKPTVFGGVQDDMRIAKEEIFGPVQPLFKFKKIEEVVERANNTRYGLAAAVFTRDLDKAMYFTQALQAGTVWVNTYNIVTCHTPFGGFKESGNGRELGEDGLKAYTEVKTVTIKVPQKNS
# ALDH1B1 [4] = target: T2, ALDH1B1; test: in vitro enzyme activity assay; assay type: biochemical
SMILES,pIC50 (ENPP1 [1]),pKd (ENPP1 [2]),pKd (ALDH1B1 [3]),pIC50 (ALDH1B1 [4])
COc1cccc(F)c1-c1nc(C(=O)Nc2ccccc2N2CCC(NS(N)(=O)=O)CC2)cn2ccnc12 [A2],5.64,5.99,–,–
Fc1cc(F)c2c(c1)[C@H]1C=CC[C@H]1[C@@H](c1cccnc1)N2 [B2],–,–,5.92,5.25
Fc1cc(F)c2c(c1)[C@@H]1C=CC[C@@H]1[C@H](c1cccnc1)N2 [B1],–,–,7.82,7.70
